# What was measured:
# wheat [1] = assay: Test A preemergence; type: in vivo, Triticum aestivum; conditions: visual injury after 10 days, 0 to 100 scale, 0 is no effect, 100 is complete control
# Outline: (§1)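 Weeds and crops in loam–sand blend were sprayed preemergence onto soil or postemergence at 2–10 cm (one- to two-leaf stage). Test chemicals were in a non-phytotoxic solvent with surfactant. After 10 days in the greenhouse, injury was rated visually against untreated controls on a 0 (no effect) to 100 (complete control) scale.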
# pigweed, palmer [2] = assay: Test A preemergence; type: in vivo, Amaranthus palmeri; conditions: visual injury after 10 days, 0 to 100 scale, 0 is no effect, 100 is complete control
# Outline: as §1
# horseweed = assay: Test A postemergence; type: in vivo, Erigeron canadensis; conditions: postemergence, 10 days
# Outline: as §1
# blackgrass [3] = assay: Test A postemergence; type: in vivo, Alopecurus myosuroides; conditions: postemergence, 10 days
# Outline: as §1
# barnyardgrass [4] = assay: Test A postemergence; type: in vivo, Echinochloa crusgalli; conditions: postemergence, 10 days
# Outline: as §1
# barnyardgrass [5] = assay: Test A preemergence; type: in vivo, Echinochloa crusgalli; conditions: visual injury after 10 days, 0 to 100 scale, 0 is no effect, 100 is complete control
# Outline: as §1
# oat, wild [6] = assay: Test A postemergence; type: in vivo, Avena fatua; conditions: postemergence, 10 days
# Outline: as §1
# soybean [7] = assay: Test A preemergence; type: in vivo, Glycine max; conditions: visual injury after 10 days, 0 to 100 scale, 0 is no effect, 100 is complete control
# Outline: as §1
# wheat [8] = assay: Test A postemergence; type: in vivo, Triticum aestivum; conditions: postemergence, 10 days
# Outline: as §1
# rice = assay: Test B flooded paddy test; type: in vivo, Oryza sativa; conditions: 250 g ai/ha, Flood, 13 days, 0 to 100 scale (0 no effect, 100 complete control)
# Outline: (§2)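 Application into standing water (3 cm above soil) at the two-leaf stage; flood depth held constant. Evaluation: day 13, visual comparison with controls, 0 = no injury, 100 = complete control.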
# pigweed, palmer [9] = assay: Test A postemergence; type: in vivo, Amaranthus palmeri; conditions: postemergence, 10 days
# Outline: as §1
# corn [10] = assay: Test A postemergence; type: in vivo, Zea mays; conditions: postemergence, 10 days
# Outline: as §1
# corn [11] = assay: Test A preemergence; type: in vivo, Zea mays; conditions: visual injury after 10 days, 0 to 100 scale, 0 is no effect, 100 is complete control
# Outline: as §1
# foxtail, giant [12] = assay: Test A preemergence; type: in vivo, Setaria faberi; conditions: visual injury after 10 days, 0 to 100 scale, 0 is no effect, 100 is complete control
# Outline: as §1
# ragweed [13] = assay: Test A preemergence; type: in vivo, Ambrosia artemisiifolia; conditions: visual injury after 10 days, 0 to 100 scale, 0 is no effect, 100 is complete control
# Outline: as §1
# kochia [14] = assay: Test A postemergence; type: in vivo, Bassia scoparia; conditions: postemergence, 10 days
# Outline: as §1
# ducksalad = assay: Test B flooded paddy test; type: in vivo, Heteranthera limosa; conditions: 250 g ai/ha, Flood, 13 days, 0 to 100 scale (0 no effect, 100 complete control)
# Outline: as §2
# sedge, umbrella = assay: Test B flooded paddy test; type: in vivo, Cyperus difformis; conditions: 250 g ai/ha, Flood, 13 days, 0 to 100 scale (0 no effect, 100 complete control)
# Outline: as §2
# barnyardgrass [15] = assay: Test B flooded paddy test; type: in vivo, Echinochloa crus-galli; conditions: 250 g ai/ha, Flood, 13 days, 0 to 100 scale (0 no effect, 100 complete control)
# Outline: as §2
# ragweed [16] = assay: Test A postemergence; type: in vivo, Ambrosia artemisiifolia; conditions: postemergence, 10 days
# Outline: as §1
# ryegrass, Italian [17] = assay: Test A preemergence; type: in vivo, Lolium multiflorum; conditions: visual injury after 10 days, 0 to 100 scale, 0 is no effect, 100 is complete control
# Outline: as §1
# galium = assay: Test A postemergence; type: in vivo, Galium aparine; conditions: postemergence, 10 days
# Outline: as §1
# ryegrass, Italian [18] = assay: Test A postemergence; type: in vivo, Lolium multiflorum; conditions: postemergence, 10 days
# Outline: as §1
# soybean [19] = assay: Test A postemergence; type: in vivo, Glycine max; conditions: postemergence, 10 days
# Outline: as §1
# foxtail, giant [20] = assay: Test A postemergence; type: in vivo, Setaria faberi; conditions: postemergence, 10 days
# Outline: as §1
# blackgrass [21] = assay: Test A preemergence; type: in vivo, Alopecurus myosuroides; conditions: visual injury after 10 days, 0 to 100 scale, 0 is no effect, 100 is complete control
# Outline: as §1
# oat, wild [22] = assay: Test A preemergence; type: in vivo, Avena fatua; conditions: visual injury after 10 days, 0 to 100 scale, 0 is no effect, 100 is complete control
# Outline: as §1
# kochia [23] = assay: Test A preemergence; type: in vivo, Bassia scoparia; conditions: visual injury after 10 days, 0 to 100 scale, 0 is no effect, 100 is complete control
# Outline: as §1
# [24] = 125 g ai/ha, 0 to 100 scale, 0 no effect, 100 complete control
# [25] = 500 g ai/ha, visual injury, 0 to 100 scale (0 no effect, 100 complete control)
smiles,measurement,setting,value
CC(C)Cc1ncn(-c2cccc(C(=O)N3C[C@H](C)Oc4c(Cl)cccc43)c2)n1 [Compound 112],"Plant response rating, Wheat",wheat [1]; 125 g ai/ha,20
same,"Plant response rating, Wheat",wheat [1]; 500 g ai/ha,40
same,"Plant response rating, Pigweed, Palmer","pigweed, palmer [2]; 125 g ai/ha",50
same,"Plant response rating, Pigweed, Palmer","pigweed, palmer [2]; 500 g ai/ha",100
same,Horseweed plant response rating,horseweed; [24],0
same,"Plant response rating, Horseweed",horseweed; [25],0
same,Blackgrass plant response rating,blackgrass [3]; [24],0
same,"Plant response rating, Blackgrass",blackgrass [3]; [25],60
same,Barnyardgrass plant response rating,barnyardgrass [4]; [24],10
same,"Plant response rating, Barnyardgrass",barnyardgrass [4]; [25],40
same,"Plant response rating, Barnyardgrass",barnyardgrass [5]; 125 g ai/ha,40
same,"Plant response rating, Barnyardgrass",barnyardgrass [5]; 500 g ai/ha,100
same,"Oat, Wild plant response rating","oat, wild [6]; [24]",10
same,"Plant response rating, Oat, Wild","oat, wild [6]; [25]",30
same,"Plant response rating, Soybean",soybean [7]; 125 g ai/ha,0
same,"Plant response rating, Soybean",soybean [7]; 500 g ai/ha,50
same,Wheat plant response rating,wheat [8]; [24],10
same,"Plant response rating, Wheat",wheat [8]; [25],20
same,"Plant response rating, Rice",rice,0
same,"Pigweed, Palmer plant response rating","pigweed, palmer [9]; [24]",50
same,"Plant response rating, Pigweed, Palmer","pigweed, palmer [9]; [25]",90
same,Corn plant response rating,corn [10]; [24],20
same,"Plant response rating, Corn",corn [10]; [25],40
same,"Plant response rating, Corn",corn [11]; 125 g ai/ha,0
same,"Plant response rating, Corn",corn [11]; 500 g ai/ha,0
same,"Plant response rating, Foxtail, Giant","foxtail, giant [12]; 125 g ai/ha",50
same,"Plant response rating, Foxtail, Giant","foxtail, giant [12]; 500 g ai/ha",90
same,"Plant response rating, Ragweed",ragweed [13]; 125 g ai/ha,0
same,"Plant response rating, Ragweed",ragweed [13]; 500 g ai/ha,40
same,Kochia plant response rating,kochia [14]; [24],70
same,"Plant response rating, Kochia",kochia [14]; [25],90
same,"Plant response rating, Ducksalad",ducksalad,0
same,"Plant response rating, Sedge, Umbrella","sedge, umbrella",0
same,"Plant response rating, Barnyardgrass",barnyardgrass [15],0
same,Ragweed plant response rating,ragweed [16]; [24],0
same,"Plant response rating, Ragweed",ragweed [16]; [25],0
same,"Plant response rating, Ryegrass, Italian","ryegrass, Italian [17]; 125 g ai/ha",40
same,"Plant response rating, Ryegrass, Italian","ryegrass, Italian [17]; 500 g ai/ha",90
same,Galium plant response rating,galium; [24],90
same,"Plant response rating, Galium",galium; [25],100
same,"Ryegrass, Italian plant response rating","ryegrass, Italian [18]; [24]",10
same,"Plant response rating, Ryegrass, Italian","ryegrass, Italian [18]; [25]",60
same,Soybean plant response rating,soybean [19]; [24],90
same,"Plant response rating, Soybean",soybean [19]; [25],100
same,"Foxtail, Giant plant response rating","foxtail, giant [20]; [24]",20
same,"Plant response rating, Foxtail, Giant","foxtail, giant [20]; [25]",70
same,"Plant response rating, Blackgrass",blackgrass [21]; 125 g ai/ha,20
same,"Plant response rating, Blackgrass",blackgrass [21]; 500 g ai/ha,80
same,"Plant response rating, Oat, Wild","oat, wild [22]; 125 g ai/ha",0
same,"Plant response rating, Oat, Wild","oat, wild [22]; 500 g ai/ha",20
same,"Plant response rating, Kochia",kochia [23]; 125 g ai/ha,0
same,"Plant response rating, Kochia",kochia [23]; 500 g ai/ha,60
